This note sets out measurements from PMC12583661, “Commensal gut bacteria employ de-chelatase HmuS to harvest iron from heme” (The EMBO Journal, 2025).

Structures are written as SMILES.

Assay [1] addresses T1, HmuS (Bacteroides thetaiotaomicron, UniProt A0A0P0FP54).
T1 construct: gene GAN91_17490; soluble HmuS without its predicted N- and C-terminal membrane-anchoring helices
T1 sequence (A0A0P0FP54 28-1433 limits assumed): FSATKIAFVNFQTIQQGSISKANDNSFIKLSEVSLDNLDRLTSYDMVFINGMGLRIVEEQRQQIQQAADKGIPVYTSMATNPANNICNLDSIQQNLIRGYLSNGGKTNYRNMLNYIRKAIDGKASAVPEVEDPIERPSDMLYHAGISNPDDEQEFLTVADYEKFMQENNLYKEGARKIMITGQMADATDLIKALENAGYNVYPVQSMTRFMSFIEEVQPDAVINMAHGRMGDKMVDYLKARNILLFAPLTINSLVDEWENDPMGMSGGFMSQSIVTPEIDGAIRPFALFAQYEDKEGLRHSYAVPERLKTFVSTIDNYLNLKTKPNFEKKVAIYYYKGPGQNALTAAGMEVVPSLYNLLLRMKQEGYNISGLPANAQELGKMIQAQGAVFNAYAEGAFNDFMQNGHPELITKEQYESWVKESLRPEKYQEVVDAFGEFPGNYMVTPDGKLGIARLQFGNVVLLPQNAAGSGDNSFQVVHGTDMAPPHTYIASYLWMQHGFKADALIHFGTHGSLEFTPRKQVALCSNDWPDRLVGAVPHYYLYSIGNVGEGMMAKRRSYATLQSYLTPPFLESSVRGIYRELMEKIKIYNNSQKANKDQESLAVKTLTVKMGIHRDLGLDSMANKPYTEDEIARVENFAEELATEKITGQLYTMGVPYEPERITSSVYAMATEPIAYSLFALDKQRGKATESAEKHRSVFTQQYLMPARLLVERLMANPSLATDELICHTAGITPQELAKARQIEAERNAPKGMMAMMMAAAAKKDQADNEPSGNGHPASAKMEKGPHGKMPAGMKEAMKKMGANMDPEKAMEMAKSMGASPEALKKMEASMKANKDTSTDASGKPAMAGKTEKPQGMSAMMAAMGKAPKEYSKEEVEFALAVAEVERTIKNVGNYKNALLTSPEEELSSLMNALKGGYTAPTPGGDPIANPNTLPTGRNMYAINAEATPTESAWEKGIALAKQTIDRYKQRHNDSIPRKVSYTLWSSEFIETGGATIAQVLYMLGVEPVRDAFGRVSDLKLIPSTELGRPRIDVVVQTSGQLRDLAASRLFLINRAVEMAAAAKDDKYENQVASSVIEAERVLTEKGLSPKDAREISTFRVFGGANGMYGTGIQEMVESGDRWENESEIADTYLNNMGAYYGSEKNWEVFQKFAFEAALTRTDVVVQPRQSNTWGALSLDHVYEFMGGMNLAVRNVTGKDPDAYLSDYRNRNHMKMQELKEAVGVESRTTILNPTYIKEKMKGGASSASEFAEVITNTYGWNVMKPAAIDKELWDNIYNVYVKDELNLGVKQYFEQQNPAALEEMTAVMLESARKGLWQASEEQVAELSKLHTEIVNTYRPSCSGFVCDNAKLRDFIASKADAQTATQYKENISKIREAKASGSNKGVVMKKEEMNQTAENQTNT
In words: cryo-EM structure at […] Å with heme; UV/vis hemin titration (Kd); HPLC turnover to PPIX. In kind it is binding.

The target in assay [2] is T2, HmuS (Bacteroides thetaiotaomicron, UniProt A0A0P0FP54, H538A).
T2 construct: gene GAN91_17490; soluble HmuS without its predicted N- and C-terminal membrane-anchoring helices
Briefly: UV/vis hemin titration of purified mutant; no turnover to PPIX. In kind it is binding.

For orientation: Kd means the concentration at which binding is half-saturated. Higher therefore signals lower affinity. Regarding `C=CC1=C(C)C2=Cc3c(C=C)c(C)c4[n]3[Fe][n]3c(c(C)c(CCC(=O)O)c3=CC3=NC(=C4)C(C)=C3CCC(=O)O)=CC1=N2` [heme], the Kd on HmuS [1] was determined as 6 ± 6 µM; at HmuS [2] it was 1400 ± 100 nM.
